Assay results reported in patent US4294842A, “Anti-protozoal oxadiazole derivatives” (Burroughs Wellcome Co., priority 1978, dated 1981).

How the values were obtained:
Eimeria tenella [1] = experiment: Index of inhibition, 400ppm in vivo (Table 2); conditions: scale 0 to 4
P. berghei = experiment: Inhibition of P. berghei blood parasitaemia in infected mice (oral); type: in vivo; conditions: Plasmodium berghei, 96 h, read-out: Percentage Inhibitions of P. berghei; for inhibition in vivo at 50 mg/kg: 7 × 50 mg/kg; for inhibition in vivo at 100 mg/kg: 7 × 100 mg/kg, parasitaemia on fourth day vs untreated controls
Excerpt: Groups of five mice were inoculated intraperitoneally with the normal strain of P. berghei. The mice on test received seven oral doses of drug begining on the afternoon of the day of infection then twice a day for the following three days. Blood parasitaemias were estimated on the fourth day and compared with those of the untreated controls.
The results are given in Table 1, the results being expressed as percentage inhibition of P.berghei.

Eimeria tenella [2] = experiment: Inhibition of Eimeria tenella in monolayer cultures of chick embryo liver cells; type: cell-based; conditions: fixed 90 hours after infection, scale 0 to 4
Description: Monolayer cultures of chick embryo liver cells were seeded onto microtitration plates and treated with the test compound (formulated by suspension in ethanol (0.05 ml) followed by dilution with sterile water (0.95 ml). Sporozoites of Eimeria tenella in culture medium were added and the culture fixed 90 hours after infection. The percentage inhibition compared to controls was determined, the results being expressed on a sacle of 0(0-10% inhibition) to 4(91-100% inhibition). The results are given in Table 2.

Oral LD50 in mice = conditions: mouse, in vivo, suspension in 0.25% Celacol
Description: The LD50 of the compound of Example 4 was determined in mice by conventional methods, the compound being administered orally as a suspension in 0.25% Celacol.

For `Clc1ccc(SCc2ncon2)cc1` [Example 36, 3-(4-Chlorophenylthiomethyl)-1,2,4-oxadiazole], the “Index of Inhibition” value (Eimeria tenella [1]) was 4 (91-100% inhibition).
In the case of `Fc1ccc(SCc2ncon2)cc1` [Example 15, 3-(4-Fluorophenylthiomethyl)-1,2,4-oxadiazole], the inhibition in vivo at 50 mg/kg (P. berghei) is reported as 59% and the “Index of Inhibition” value (Eimeria tenella [2]; 20μg/ml) is reported as 3.
For `Cc1ccc(Br)c(SCc2ncon2)c1` [Example 37, 3-(2-Bromo-5-methylphenylthiomethyl)-1,2,4-oxadiazole], the “Index of Inhibition” value (Eimeria tenella [2]; 5μg/ml) was 2 and the “Index of Inhibition” value (Eimeria tenella [2]; 20μg/ml) was 3.
For `COc1ccc(SCc2ncon2)cc1` [Example 13, 3-(4-Methoxyphenylthiomethyl)-1,2,4-oxadiazole], the “Index of Inhibition” value (Eimeria tenella [2]; 20μg/ml) was 2.
`COc1ccccc1SCc1ncon1` [Example 6, 3-(2-Methoxyphenylthiomethyl)-1,2,4-oxadiazole] showed an inhibition in vivo at 50 mg/kg (P. berghei) of 5%.
In the case of `Cc1cccc(SCc2ncon2)c1C` [Example 17, 3-(2,3-Dimethylphenylthiomethyl)-1,2,4-oxadiazole], the inhibition in vivo at 100 mg/kg (P. berghei) is reported as 62% and the “Index of Inhibition” value (Eimeria tenella [2]; 20μg/ml) is reported as 2.
With `Cc1nc(CSc2cccc(C)c2C)no1` [Example 23, 3-(2,3-Dimethylphenylthiomethyl)-5-methyl-1,2,4-oxadiazole] the “Index of Inhibition” value (Eimeria tenella [2]; 20μg/ml) was 3.
Work on `Brc1ccc(SCc2ncon2)cc1` [Example 3, 3-(4-Bromophenylthiomethyl)-1,2,4-oxadiazole] yielded an inhibition in vivo at 100 mg/kg (P. berghei) of 71%.
For `Nc1ccc(SCC2=NOCN2)cc1` [Example 44, 3-(4-aminophenylthiomethyl)-4,5-dihydro-1,2,4-oxadiazole], the inhibition in vivo at 100 mg/kg (P. berghei) was 10%.
With `N#CSc1ccc(SCc2ncon2)cc1` [Example 45, 3-(4-Thiocyanatophenylthiomethyl)-1,2,4-oxadiazole] the inhibition in vivo at 10 mg/kg (P. berghei; 7 × 10 mg/kg) was 34% and the “Index of Inhibition” value (Eimeria tenella [2]; 5μg/ml) was 2.
With `Brc1ccccc1SCc1ncon1` [Example 5, 3-(2-Bromophenylthiomethyl)-1,2,4-oxadiazole] the inhibition in vivo at 80 mg/kg (P. berghei; 7 × 80 mg/kg) was 2% and the “Index of Inhibition” value (Eimeria tenella [2]; 20μg/ml) was 1.
With `Cc1cccc(SCc2ncon2)c1` [Example 8, 3-(3-Methylphenylthiomethyl)-1,2,4-oxadiazole] the “Index of Inhibition” value (Eimeria tenella [2]; 20μg/ml) was 3.
For `Cc1nc(CSc2ccc(Br)cc2)no1` [Example 22, 3-(4-Bromophenylthiomethyl)-5-methyl-1,2,4-oxadiazole], the inhibition in vivo at 100 mg/kg (P. berghei) was 46% and the “Index of Inhibition” value (Eimeria tenella [2]; 20μg/ml) was 2.
With `Cc1nc(CSc2ccc([N+](=O)[O-])cc2)no1` [Example 24, 3-(4-Nitrophenylthiomethyl)-5-methyl-1,2,4-oxadiazole] the “Index of Inhibition” value (Eimeria tenella [2]; 20μg/ml) was 2.
For `FC(F)(F)c1cccc(SCc2ncon2)c1` [Example 31, 3-(3-Trifluoromethylphenylthiomethyl)-1,2,4-oxadiazole], the “Index of Inhibition” value (Eimeria tenella [2]; 20μg/ml) was 4 (91-100% inhibition).
For `Cc1ccc(SCc2ncon2)cc1` [Example 1, 3-(4-Methylphenylthiomethyl)-1,2,4-oxadiazole], the inhibition in vivo at 100 mg/kg (P. berghei) was 38%.
In the case of `O=[N+]([O-])c1ccc(SCc2ncon2)cc1` [Example 12, 3-(4-Nitrophenylthiomethyl)-1,2,4-oxadiazole], the inhibition in vivo at 100 mg/kg (P. berghei) is reported as 14% and the “Index of Inhibition” value (Eimeria tenella [2]; 20μg/ml) is reported as 4 (91-100% inhibition).
For `CC(C)(C)c1ccc(SCc2ncon2)cc1` [Example 34, 3-(4-t-Butylphenylthiomethyl)-1,2,4-oxadiazole], the inhibition in vivo at 100 mg/kg (P. berghei) was 28%.
Work on `Oc1ccccc1SCc1ncon1` [Example 29, 3-(2-Hydroxyphenylthiomethyl)-1,2,4-oxadiazole] yielded an inhibition in vivo at 100 mg/kg (P. berghei) of 23%.
Compound `c1ccc2cc(SCc3ncon3)ccc2c1` [Example 38, 3-(2-Naphthylthiomethyl)-1,2,4-oxadiazole] has an inhibition in vivo at 100 mg/kg (P. berghei) of 21%.
`CN(C)c1ccc(SCc2ncon2)cc1` [Example 33, 3-(4-N,N-Dimethylaminophenylthiomethyl)-1,2,4-oxadiazole] showed an inhibition in vivo at 100 mg/kg (P. berghei) of 19%.
With `CSc1ccc(SCc2ncon2)cc1` [Example 16, 3-(4-Methylthiophenylthiomethyl)-1,2,4-oxadiazole] the inhibition in vivo at 100 mg/kg (P. berghei) was 4% and the “Index of Inhibition” value (Eimeria tenella [2]; 20μg/ml) was 2.
With `Cc1ccc(SCc2ncon2)c(C)c1` [Example 18, 3-(2,4-Dimethylphenylthiomethyl)-1,2,4-oxadiazole] the inhibition in vivo at 100 mg/kg (P. berghei) was 14% and the “Index of Inhibition” value (Eimeria tenella [2]; 20μg/ml) was 2.
With `Cc1nc(CSc2ccc(Cl)cc2)no1` [Example 25, 3-(4-Chlorophenylthiomethyl)-5-methyl-1,2,4-oxadiazole] the “Index of Inhibition” value (Eimeria tenella [2]; 20μg/ml) was 2.
`c1ccc2c(SCc3ncon3)cccc2c1` [Example 19, 3-(1-Naphthylthiomethyl)-1,2,4-oxadiazole] gave an inhibition in vivo at 50 mg/kg (P. berghei) of 55%.
For `Clc1ccc(SCc2ncon2)cc1Cl` [Example 20, 3-(3,4-Dichlorophenylthiomethyl)-1,2,4-oxadiazole], the “Index of Inhibition” value (Eimeria tenella [2]; 20μg/ml) was 3.
With `Nc1ccccc1SCc1nc(CSc2ccc(Cl)cc2)no1` [Example 40, 5-(2-aminophenylthiomethyl)-3-(4-chlorophenylthiomethyl)-1,2,4-oxadiazole] the inhibition in vivo at 100 mg/kg (P. berghei) was 18%.
For `Clc1cc(Cl)c(SCc2ncon2)cc1Cl` [Example 21, 3-(2,4-5-Trichlorophenylthiomethyl)-1,2,4-oxadiazole], the inhibition in vivo at 20 mg/kg (P. berghei; 7 × 20 mg/kg) was 18%, the inhibition in vivo at 100 mg/kg (P. berghei) was 19% and the “Index of Inhibition” value (Eimeria tenella [2]; 20μg/ml) was 4 (91-100% inhibition).
With `CCCCc1ccc(SCc2ncon2)cc1` [Example 32, 3-(4-n-Butylphenylthiomethyl)-1,2,4-oxadiazole] the “Index of Inhibition” value (Eimeria tenella [2]; 20μg/ml) was 2.
`Clc1ccc(SCc2noc(CSc3ccc(Cl)cc3)n2)cc1` [Example 27, 3,5-Di-(4-chlorophenylthiomethyl)1,2,4-oxadiazole] showed an inhibition in vivo at 100 mg/kg (P. berghei) of 47%.
For `Nc1cccc(SCc2ncon2)c1` [Example 9, 3-(3-Aminophenylthiomethyl)-1,2,4-oxadiazole], the inhibition in vivo at 100 mg/kg (P. berghei) was 34% and the “Index of Inhibition” value (Eimeria tenella [2]; 20μg/ml) was 2.
In the case of `Brc1ccc(SCc2noc(CSc3ccc(Br)cc3)n2)cc1` [Example 26, 3,5-Di-(4-bromophenylthiomethyl)-1,2,4-oxadiazole], the inhibition in vivo at 100 mg/kg (P. berghei) is reported as 99% and the “Index of Inhibition” value (Eimeria tenella [2]; 20μg/ml) is reported as 2.
For `COc1cccc(SCc2ncon2)c1` [Example 10, 3-(3-Methoxyphenylthiomethyl)-1,2,4-oxadiazole], the “Index of Inhibition” value (Eimeria tenella [2]; 5μg/ml) was 4 (91-100% inhibition).
In the case of `c1ccc(Sc2cccc(SCc3ncon3)c2)cc1` [Example 7, 3-(3-Phenylthiophenylthiomethyl)-1,2,4-oxadiazole], the inhibition in vivo at 100 mg/kg (P. berghei) is reported as 2% and the “Index of Inhibition” value (Eimeria tenella [2]; 20μg/ml) is reported as 1.
For `c1ccc(SCc2ncon2)cc1` [Example 4, 3-Phenylthiomethyl-1,2,4-oxadiazole], the inhibition in vivo at 100 mg/kg (P. berghei) was 49% and the LD50 (Oral LD50 in mice) was about 1600 mg/kg.
For `Nc1ccc(SCc2ncon2)cc1` [Example 14, 3-(4-Aminophenylthiomethyl)-1,2,4-oxadiazole], the inhibition in vivo at 100 mg/kg (P. berghei) was 41% and the “Index of Inhibition” value (Eimeria tenella [2]; 20μg/ml) was 2.
